According to PubChem BioAssay AID179 (DTP/NCI, 2004):
Several values for one entry are separate records, joined by “and”; a condition that tells them apart may be missing. Equal values may be shown once. Activity calls are given as the source filed them.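 How the source made its calls: active means compounds giving half or more protection of infected cells from virus-caused growth loss, again on retest; inactive means the rest.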 Where a SMILES comes first, the peptide text is derived from it. The star is where a group is joined. Cbz = O=C(OCc1ccccc1)*

Test system: CEM cells HIV-1 protection, formazan growth assay
Assay: NCI AIDS Antiviral Assay
Conditions: for IC50: measured here: growth of uninfected CEM cells
How it was run: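 Soluble formazan readout of cell growth; CEM cells ± HIV-1; 5 drug concs. ≥50% protection → retest; ≥50% again = moderately active; reproducible 100% = confirmed active.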

Structure (SMILES) | EC50 | IC50 | outcome
C[C@H]1CC[C@@]2(OC1)O[C@H]1C[C@H]3[C@@H]4CC[C@@H]5C[C@@H](OC6OC(CO)C(O)C(O)C6OC6OC(CO)C(O)C(O)C6O)CC[C@]5(C)[C@H]4CC[C@]3(C)[C@H]1[C@@H]2C (stereo partly drawn) | > 200 µM | 5.25 µM | –
C=C[C+](CCCC)C(=O)[O-] | 589 µM | 631 µM | –
O=C1CNS(=O)(=O)N1 | > 1820 µM | > 1820 µM | –
CCN1C[C@]2(COC(=O)c3ccccc3N3C(=O)CC(C)C3=O)CCC(OC)C34[C@@H]5C[C@@H]6C(OC)[C@@H]5[C@](O)(C[C@@H]6OC)[C@@](O)([C@H]13)[C@@H](OC)[C@@H]42 (stereo partly drawn) | – | – | inactive
CC12CCC(C(S(=O)(=O)Nc3ccccc3)C1=O)C2(C)C (stereo not drawn) | > 200 µM | 138 µM | –
c1ccc2c(c1)Sc1ccccc1S2 | > 200 µM | > 200 µM | –
CN(C)Cc1cc(C(=O)/C=C/c2ccc(F)cc2)cc(CN(C)C)c1O | > 200 µM | 19.1 µM | –
Cc1cc(Cl)n2nc(-c3ccc(Cl)cc3)nc2n1 | > 49 µM | > 49 µM | –
COc1ccc(-c2cnoc2-c2ccc(OC)c(OC)c2)cc1OC | > 55 µM | 0.355 µM | –
CN=C1Nc2ccccc2C(=S)N2CSC[C@@H]12 | > 200 µM | > 200 µM | –
COc1ccccc1Nc1nc(NNC(=O)Cc2ccccc2)nc(NNC(=O)c2ccncc2)n1 | > 50.1 µM | > 50.1 µM | –
O=[N+]([O-])c1ccc(-n2nnc(C3=NCCN3)c2-c2ccc(Cl)cc2)cc1 | > 135 µM | > 135 µM | –
CC(=O)c1c2c(cc3c1CC1(C3)Cc3cc4c(c(C(C)=O)c3C1)CCC4)CCC2 | > 18.6 µM | > 18.6 µM | –
O=C(Nc1sccc1S(=O)(=O)c1ccccc1)c1ccccc1 | > 20 µM | 11.7 µM | –
CCOC(=O)c1c(SCCN2CCOCC2)n(-c2ccccc2)c(=S)n(-c2ccccc2)c1=O | > 27.5 µM | > 27.5 µM | –
CCOC(=O)/C(=C/c1cccc(Cl)c1)C(=O)c1ccccc1 | > 12 µM | > 12 µM | –
COc1ccc(-c2c3ccccc3c(-c3ccc(OCCBr)cc3)c3ccccc23)cc1 | > 100 µM | > 100 µM | –
C/C(=N/OCCC(=O)O)C1CC1 | > 1450 µM | > 1450 µM | –
COC(=O)NN/C=C(\C=Nc1ccccc1)[N+](=O)[O-] | > 97.7 µM | 87.1 µM | –
Cn1cnc([N+](=O)[O-])c1Sc1nc2ncccc2[nH]1 | > 912 µM | 21.9 µM | –
O=C(CO)CC(=O)C(=O)Nc1nc([N+](=O)[O-])cs1 | > 132 µM | > 132 µM | –
COc1ccc(/C(=N\NC(=O)NN)C(c2ccc(OC)cc2)C2(O)C(=O)Nc3c(Cl)cc(Cl)cc32)cc1 (stereo not drawn) | > 9.55 µM | > 9.55 µM | –

Structure (SMILES) | EC50 | IC50 | outcome
O=C(CSc1nnc(Cc2ccccc2)o1)Nc1ccc(Cl)cc1Cl | > 66.1 µM | > 66.1 µM | –
COc1ccc(-n2c(=O)n(C)c(=O)n2-c2ccc(OC)cc2)cc1 | > 200 µM | > 200 µM | –
Cc1ccc2c(CC(=O)O)cc(=O)oc2c1 | > 229 µM | 38.9 µM | –
Cc1nc(N)nc2c1CCC(O)S2 (stereo not drawn) | > 200 µM | 1.02 µM | –
Cc1cc(O)c(C=NC(=S)c2ccccc2)c(=O)o1 | > 200 µM | > 200 µM | –
CN1C2=CC=CC=CC2=[N+](C)C1C(=C=[N-])C#N (stereo not drawn) | > 363 µM | 245 µM | –
O=c1sc2c(s1)-c1sc(=O)sc1SS2 | > 77.6 µM | 51.3 µM | –
COC1/C=C/OC2(C)Oc3c(C)c(O)c4c(O)c(c(/C=N/N(C)C5OC(COC(=O)c6ccccc6)C(OC(=O)c6ccccc6)C5OC(=O)c5ccccc5)c(O)c4c3C2=O)NC(=O)C(C)=C/C=C/C(C)C(O)C(C)C(O)C(C)C(OC(C)=O)C1C (stereo not drawn) | > 200 µM | 10 µM | –
CCN(Cc1ccccc1)c1ccc(/C=C/c2ccnc3ccccc23)cc1 | > 10.2 µM | 8.32 µM | –
CC(NC(=O)C(C)NC(=O)C(N)CCP(C)(=O)O)C(=O)O (stereo not drawn) | – | – | inactive
O=C(/C=C/C(=O)N1CCCC1)N1CCCC1 | > 200 µM | > 200 µM | –
O=c1[nH]c2c(cnn2-c2ccccc2)c(=O)n1OS(=O)(=O)c1ccccc1 | > 200 µM | > 200 µM | –
O=c1oc2cc(O)ccc2c2[nH]c3cc(O)ccc3c12 | > 97.7 µM | 17 µM | –
Fc1cccc(F)c1C1SCc2nc3ncccc3n21 (stereo not drawn) | 39.8 µM | 61.7 µM | –
O=c1[nH]c2ccccc2c(O)c1Cc1ccccc1 | > 200 µM | > 200 µM | –
Cn1cncc1CC1COC(=O)C1C(O)c1ccccc1 (stereo not drawn) | > 200 µM | > 200 µM | –
Cc1cn(C(C)OCCN(O)C(=O)Oc2ccccc2)c(=O)[nH]c1=O (stereo not drawn) | > 200 µM | > 200 µM | –
Cc1ccc(C2(O)c3ccccc3N=NN2C)cc1 (stereo not drawn) | > 269 µM | 105 µM | –
COc1cc2c(cc1OC)OC(c1c(OC)ccc(OC)c1O)CC2 (stereo not drawn) | > 100 µM | > 100 µM | –
Cc1c(C(=O)CC(=O)C(=O)NC2C3CC4CC(C3)CC2C4)[n+](=O)c2ccccc2n1[O-] (stereo not drawn) | > 12.3 µM | > 12.3 µM | –
COc1cc2c(c(OC)c1OC)-c1ccc(OC)c(=O)cc1C(NC(=O)COc1ccccc1)CC2 (stereo not drawn) | > 0.2 µM | 0.00251 µM | –
Nc1ccc2nc3ccc(O)cc3nc2c1 | > 200 µM | 17 µM | –

Structure (SMILES) | EC50 | IC50 | outcome
O=c1[nH]c(=O)n(COCCO)c2ccc(Br)cc12 | > 200 µM | > 200 µM | –
COC(=O)C1=C(\O)C[C@@]2(C)CC[C@@H](C(=O)OC)C2C/C=C\1C(=O)OC (stereo partly drawn) | – | – | inactive
Fc1cccc(C=NC23CC4CC(CC(C4)C2)C3)c1 | > 52.5 µM | > 52.5 µM | –
CC1C(c2ccc3c(c2)OCO3)c2cc3c(cc2OC1N1CCOCC1)OCO3 (stereo not drawn) | > 200 µM | 10.7 µM | –
COc1cccc(CCNC(=O)CC#N)c1 | – | – | inactive
CCN=Cc1c(O)c(O)c(C(C)C)c2cc(C)c(-c3c(C)cc4c(C(C)C)c(O)c(O)c(C=NCC)c4c3O)c(O)c12 | – | – | inactive
O=C1CSC(=O)N1 | > 2140 µM | > 2140 µM | –
CCCOc1csc([C@H]2CCC3[C@@H]4CC=C5C[C@@H](OC(=O)CCC(=O)O)CC[C@]5(C)C4CC[C@@]32C)n1 (stereo partly drawn) | > 47.9 µM | 18.2 µM | –
COC(=O)N/N=c1\cc(C(=O)Nc2ccc(C)c(C)c2)oc2cc(O)ccc12 | > 661 µM | 575 µM | –
NC(=O)C(=O)C1C(=O)N(c2ccccc2)N=C1N (stereo not drawn) | – | – | inactive
O=C1N2CCCSC2=NC1(c1ccccc1)c1ccccc1 | – | – | inactive
COc1ccc(Br)c2c1CC(C(=O)O)CC2 (stereo not drawn) | > 457 µM | 234 µM | –
C#CCN(N=O)C(=O)NC(CCCCNC(=O)OCc1ccccc1)C(=O)OCc1ccccc1 (stereo not drawn) | > 10.7 µM | > 10.7 µM | –
C=CCNC(=S)N/C=C(/C#N)C(=O)OC | – | – | inactive
C=CCc1cc(CN2CCN(C)CC2)c(O)c(OC)c1 | > 200 µM | > 200 µM | –
CC1(C)CCC(=O)c2c(O)ccc(O)c21 | – | – | inactive
Cc1[nH]c(=O)n2c(C)nnc2c1C(=O)Nc1cc(Cl)cc(Cl)c1 | – | – | inactive
Cc1ccccc1-c1nc(/C=C2\C(=O)C=Cc3ccccc32)c(O)o1 | > 200 µM | > 200 µM | –
CCCC=NCCOC(=S)[S-].CCCC=NCCOC(=S)[S-].[Zn+2] | > 100 µM | 56.2 µM | –
CC[N+]1(C)CCC(O)(/C=C/c2ccc(OC)cc2)C(C(=O)/C=C/c2ccc(OC)cc2)C1 (stereo not drawn) | > 200 µM | 1.12 µM | –
O=c1c(SCc2ccccc2F)c(SCc2ccccc2F)cnn1-c1ccccc1 | > 11.5 µM | 4.9 µM | –
O=C(O)CC1(CC(=O)Nc2nccs2)CCCCC1 | > 126 µM | > 126 µM | –

Structure (SMILES) | EC50 | IC50 | outcome
O=C(O)c1nn(-c2ccccc2-c2n[nH]c(=O)[nH]c2=O)c(=O)[nH]c1=O | > 200 µM | > 200 µM | –
CC(C)(C)c1ccc(O)c(Cc2cc(C(C)(C)C)cc(Cc3cc(C(C)(C)C)ccc3O)c2O)c1 | > 39.8 µM | 12.9 µM | –
CC1=C(C)C(=O)c2c(cc3c4ccccc4ccn23)C1=O | – | – | inactive
Cc1cn(CCCCCCOC(=O)NC(CCCNC(N)=O)C(=O)O)c(=O)[nH]c1=O (stereo not drawn) | > 200 µM | > 200 µM | –
C[C@@H](CCO)OC1OC(COC(=O)C(C)(C)C)C(OC(=O)C(C)(C)C)C(OC(=O)C(C)(C)C)C1OC(=O)C(C)(C)C (stereo partly drawn) | > 200 µM | 12 µM | –
COC(=O)C1(Cc2ccccc2)Cc2cc3c(cc2C1O)CCC3 (stereo not drawn) | > 200 µM | 24 µM | –
CCOC(=O)C(NC(=O)CC)(Nc1ccc(F)c(Cl)c1)C(F)(F)F (stereo not drawn) | > 200 µM | > 200 µM | –
CC1(C)CC(=O)C(/C=N/c2nc(-c3ccccc3)cs2)=C(O)C1 | > 200 µM | > 200 µM | –
CC(=S)NC=C(C(N)=O)C(N)=O | > 200 µM | > 200 µM | –
O=C(c1cccs1)N1CCc2ccccc2C1 | > 162 µM | 107 µM | –
CCOc1ccc(N=NC2C(=O)N(C(=O)CC(=O)Nc3ccc(C)cc3)N=C2C)cc1 (stereo not drawn) | > 200 µM | 10.5 µM | –
FC(F)(F)C1(C(F)(F)F)C2CCC3(CC(F)(F)C(F)(F)S3)C1C2 (stereo not drawn) | > 200 µM | > 200 µM | –
CN(C)CCn1c(=O)c2ccc(NCCN3CCNCC3)c3c(=O)c4ccccc4n(c1=O)c23 | > 200 µM | 0.0631 µM | –
CC(=O)OCc1cc(=O)n2c([nH]c3ccccc32)c1C#N | > 20 µM | > 20 µM | –
CC(C)C1=CC(=O)C(C)(C2=NC(C)(C)CO2)c2ccccc21 (stereo not drawn) | > 437 µM | > 437 µM | –
C[n+]1c(-c2ccc(/C=N/NC(=O)C(=O)N/N=C/c3ccc(-c4cn5ccccc5[n+]4C)cc3)cc2)cn2ccccc21 | 56.2 µM and > 200 µM | 74.1 µM and > 200 µM | –
CSc1n[nH]c(NC(=O)c2ccc(Cl)cc2)n1 | > 19.5 µM | > 19.5 µM | –
O=C(O)CCC(NC(=O)OCc1ccccc1)C(=O)NC(Cc1cnc[nH]1)C(=O)O (stereo not drawn) (Cbz-Glu-His-OH; configuration not given here) | > 200 µM | > 200 µM | –
COC12C=CC(CC1)C(C)(C)C2=O (stereo not drawn) | > 200 µM | > 200 µM | –
C(=C/[PH+](c1ccccc1)c1ccccc1)/[PH+](c1ccccc1)c1ccccc1.O=C([O-])C(F)(F)F.[C-]#[O+].[C-]#[O+].[C-]#[O+].[Mn] | > 8.13 µM | 0.589 µM | –
Cc1cc(Cl)c2c(c1)C(=N/O)/C(=C\c1ccco1)O2 | > 200 µM | 10.2 µM | –
